Experimental data taken from patent US5811073A, “Method for radioisotopic detection and localization of inflammation in a host” (President and Fellows of Harvard College, priority 1995, dated 1998).

Columns and labels:
[1] = system: sterile inflammatory lesions (pus capsule; turpentine oil); assay: Gamma camera imaging of rats with sterile inflammation; type: in vivo, Male Sprague-Dawley rats; details: for Figure of Merit (FOM), equation (1): 0.2 mCi ^67 Ga-citrate; for Figure of Merit (FOM), equation (1) / Pus Capsule to Contralateral Tissue (T/B) Ratio, gamma camera imaging: 1.5 mCi/rat ^123 IUdR; for Figure of Merit (FOM), equation (1) / Pus Capsule to Contralateral Tissue (T/B) Ratio, gamma camera imaging / Figure of Merit (FOM), equation (2): n=4, mean ± SD; for Pus Capsule to Contralateral Tissue (T/B) Ratio, gamma camera imaging: 0.2 mCi/rat ^67 Ga
Experimental: Male Sprague-Dawley rats weighing between 150-200g were obtained from the Charles River Breeding Laboratories in Burlington, Mass. […] To anaesthetize the animals during testing, ketamine (40 mg/kg) and xylazine (10 mg/kg) were administered intra peritoneally (1.0 ml/kg) prior to surgical procedures. For the imaging studies, each animal received 1.5 ml/kg of a mixture of ketamine (75 mg/kg), xylazine (39 mg/kg) and acepromazine (0.75 mg/kg).
To induce a localized sterile inflammation, 0.1 ml of turpentine oil (Rectified Turpentine Oil for medical use, Gentry Corporation, Fair Lawn, N.J.) was injected into the left thigh muscle of anesthetized rats.
(§1) A further set of rats prepared as described in Examples 1 and 2 received intravenous injections of either ^123 IUdR (at a dose of about 1.5 mCi/rat) or gallium-67 citrate (at a dose of about 0.2 mCi/rat). After 1, 3 and 24 hours, rats from each group were anesthetized and imaged using a gamma camera (the General Electric STARCAM™ 400 fitted with parallel hole medium collimator). Anterior images were obtained 10^6 counts/frame except for the 24 h period for ^123 IUdR where a 15 min scan was carried out. A 20% window was present over the 159 keV photopeaks of ^67 Ga (93 kev, 184 keV, and 298 keV).
(§2) Regions of interest (ROI) were drawn over the inflamed areas (3×4 pixel) and over the contralateral area in each rat. Total counts in these regions were used to calculate Target to Background (T/B) ratios and to calculate Figure of Merit (FOM; statistical significance) values using either of the following equations:
(§3) FOM=(At -Ab)^2 /(At +Ab) (1)
(§4) At =counts in ROI (3×4) over pus capsule; and
(§5) Ab =counts in ROI (3×4) over contralateral muscle.
(§6) Equation (1) is derived from the Report of the National Council on Radiation Protection and Measurements, Nuclear Medicine, "Factors Influencing the Choice and Use of Radionuclides in Diagnosis and Therapy", Report No. 70, p.79 (NRCP, Bethesda, Md., 1982). Equation (2) is derived from Rubin et al., J. Nucl. Med. 30:385-389, 1989. For purposes of reference, the disclosures of each of these publications is incorporated herein.

[2] = system: bacterial (E. coli) inflammatory lesions (pus capsule); assay: Gamma camera imaging of rats with bacterial infection; type: in vivo; parameters: key to Figure of Merit (FOM), equation (1): FOM=(At-Ab)^2/(At+Ab), from total counts target vs background; details: for Figure of Merit (FOM), equation (1): 0.2 mCi ^67 Ga-citrate (n=3); for Figure of Merit (FOM), equation (1) / Pus Capsule to Contralateral Tissue (T/B) Ratio, gamma camera imaging: 1.5 mCi/rat ^123 IUdR (n=4); for Figure of Merit (FOM), equation (1) / Pus Capsule to Contralateral Tissue (T/B) Ratio, gamma camera imaging / Figure of Merit (FOM), equation (2): mean ± SD; for Pus Capsule to Contralateral Tissue (T/B) Ratio, gamma camera imaging: 0.2 mCi/rat ^67 Ga (n=3); for Figure of Merit (FOM), equation (2): n=3 (^67 Ga), n=4 (^123 IUdR)
Experimental: (§7) A frozen sample of E. coli bacteria (clinical isolate; ATCC 9339) was used to inoculate a 10 ml trypticase soy medium (trypticase soy broth, BBL #11768, 30 g/L water), and the tube was incubated overnight at […] This culture was used to grow single colonies by streaking the sample on agar plates (100 mm petri dishes each containing 15 ml of […] in the same medium). Good colonies develop in 10-11 hours at 37° C. The agar plates containing bacterial colonies were stored upside down at 4° C. A single colony of bacteria from the agar plate was used to inoculate 10 ml trypticase soy medium, and the tube was incubated overnight at 37° C. with vigorous shaking. Two ml of this overnight culture was transferred into 100 ml trypticase soy medium and the sample incubated at 37° C. with vigorous shaking until the culture reached an OD600 of ~0.8 (in about 2 hrs). This 100 ml culture contained ~6.4×10^10 bacterial cells (1 OD600 =8×10^8 cells/ml).
(§8) The culture was centrifuged at 5500 rpm for 5 min at 4° C. in a Sorvall SS-34 rotor, the bacterial pellet resuspended in saline to give ~2.5×10^9 bacteria/ml, and 0.1 ml of resuspended cells injected into the left thigh muscle of each anesthetized rat.
as §1, §2, §3, §4, §5, §6

[3] = system: sterile inflammatory lesions (pus capsule; turpentine oil); assay: Biodistribution (pus capsule to contralateral tissue ratio) in rats with sterile inflammation
[4] = system: bacterial (E. coli) inflammatory lesions (pus capsule); assay: Biodistribution (pus capsule to contralateral tissue ratio) in rats with bacterial infection; type: in vivo
Experimental: as §7, §8
No-carrier added radioiodinated deoxyuridine (^125 IUdR) was synthesized by the method described in the above disclosure. Commercially available gallium-67 citrate of known biodistribution characteristics was obtained, for comparison to ^125 IUdR. 24 hrs after each rat described in Example 2 received an intramuscular injection of E. coli or after each rat described in Example 1 received an intramuscular injection of turpentine oil (to permit comparison of activity in a bacterial inflammation lesions to activity in a sterile inflammation lesions) in the left rear thigh, each rat received either ^125 IUdR (about 5 μCi/rat) or gallium-67 citrate (about 10 μCi/rat) suspended in 0.1 ml saline, by injection into the tail vein.
At one, three and 24 hrs after ^125 IUdR or gallium-67 citrate administration, the animals from each group were anesthetized, blood collected via cardiac puncture, urine aspirated from the urinary bladder, and the rats humanely sacrificed. The biodistribution of each radiopharmaceutical (measured as a function of the % injected dose/gram body weight) was then determined in various normal tissues and organs, as well as the left and right legs, the pus capsule formed within the leg and in contralateral muscle tissues (i.e., background tissues unaffected by inflammation) of equivalent weight.
To determine the distribution of each radiopharmaceutical in various tissues of each rat (i.e., the "biodistribution" of each radiopharmaceutical), samples of background tissues and organs (blood, lung, liver, spleen, kidney, muscle and intestine), of target tissue (the pus capsule formed in the leg) and of contralateral muscle tissue (background tissue adjacent to target tissue) were obtained from each rat and weighed. Radioactivity in each sample was measured in a well-type gamma counter (from LKB, Wallac Oy, Finland). To correct for radioactive decay and permit calculation of activity in each organ or tissue as a fraction of the injected dosage of radiopharmaceutical, aliquots of the injected doses were counted at the same time that radioactivity in each sample was determined. The results were measured as a function of the percentage of injected dose/gram (% ID/g). For further reference regarding measurements of biodistribution of radiopharmaceuticals, particularly in blood, those of ordinary skill in the art may wish to refer to Baker et al., "The Laboratory Rat" (Acad.Press N.Y., 1980).
Ab = %ID/g over contralateral muscle

SMILES: O=c1[nH]c(=O)n([C@H]2C[C@H](O)[C@@H](CO)O2)cc1[123I] [^123 IUdR]
- detection of the lesion in scintigraphic images (in words) ([1]; 1, 3, and 24 h, i.v.): can clearly detect the lesion
- Figure of Merit (FOM), equation (1) ([1]; 1 h, i.v.): 14444 ± 559
- Pus Capsule to Contralateral Tissue (T/B) Ratio, gamma camera imaging ([1]; 1 h, i.v.): 4.13 ± 1.06
- Figure of Merit (FOM), equation (2) ([1]; 1 h, i.v.): 3.13 ± 0.53
- Figure of Merit (FOM), equation (1) ([1]; 3 h, i.v.): 750 + 268
- Pus Capsule to Contralateral Tissue (T/B) Ratio, gamma camera imaging ([1]; 3 h, i.v.): 3.33 ± 0.92
- Figure of Merit (FOM), equation (2) ([1]; 3 h, i.v.): 2.33 ± 0.46
- efficacy by imaging T/B ratio, comparison of agents (in words) ([1]; 3 hrs): equal
- Figure of Merit (FOM), equation (1) ([1]; 24 h, i.v.): 69 + 52
- Pus Capsule to Contralateral Tissue (T/B) Ratio, gamma camera imaging ([1]; 24 h, i.v.): 3.07 ± 0.930
- Figure of Merit (FOM), equation (2) ([1]; 24 h, i.v.): 2.07 ± 1.46
- accumulation in target tissues, rate vs gallium-67 citrate (in words) ([1]; FIGS. 4 and 8 vs FIGS. 3 and 7): more quickly than did gallium-67 citrate
- radioscintigraphic detection by FOM, comparison of agents (in words) ([1]; early (i.e., 1 h)): superior agent
- radioscintigraphic detection by imaging T/B ratio, comparison of agents (in words) ([1]; early (i.e., 1 h)): superior to gallium-67
- detection of the lesion in scintigraphic images (in words) ([2]; 1, 3, and 24 h, i.v.): can clearly detect the lesion
- radioscintigraphic detection by FOM, comparison of agents (in words) ([2]; 1 h, 3 hrs, and 24 hrs): superior agent
- radioscintigraphic detection by imaging T/B ratio, comparison of agents (in words) ([2]; 1 h, 3 hrs, and 24 hrs): superior to gallium-67
- Figure of Merit (FOM), equation (1) ([2]; 1 h, i.v.): 1770 ± 598
- Pus Capsule to Contralateral Tissue (T/B) Ratio, gamma camera imaging ([2]; 1 h, i.v.): 3.72 ± 1.06
- Figure of Merit (FOM), equation (2) ([2]; 1 h, i.v.): 2.72 ± 0.53
- Figure of Merit (FOM), equation (1) ([2]; 3 h, i.v.): 1507 ± 775
- Pus Capsule to Contralateral Tissue (T/B) Ratio, gamma camera imaging ([2]; 3 h, i.v.): 3.53 ± 0.80
- Figure of Merit (FOM), equation (2) ([2]; 3 h, i.v.): 2.53 ± 0.40
- Figure of Merit (FOM), equation (1) ([2]; 24 h, i.v.): 214 + 135
- Pus Capsule to Contralateral Tissue (T/B) Ratio, gamma camera imaging ([2]; 24 h, i.v.): 5.35 ± 2.37
- Figure of Merit (FOM), equation (2) ([2]; 24 h, i.v.): 4.35 ± 1.19

SMILES: O=c1[nH]c(=O)n([C@H]2C[C@H](O)[C@@H](CO)O2)cc1[125I] [^125 IUdR]
- concentration within lesion (pus capsule) vs contralateral tissues (in words) ([3]; sterile inflammation (turpentine oil)): to a greater extent than in the contralateral tissues
- radioscintigraphic detection by biodistribution T/B ratios, compared with ^67 Ga (in words) ([3]; sterile inflammation, 3 h and 24 h): much better than ^67 Ga
- radioscintigraphic detection by biodistribution T/B ratios, compared with ^67 Ga (in words) ([4]; bacterial infection, 1 h, 3 h, and 24 h): better
- concentration within lesion (pus capsule) vs contralateral tissues (in words) ([4]; rat, in vivo): to a greater extent than in the contralateral tissues
- time of accumulation in target (inflamed) tissues ([4]; rat, in vivo): ≤ 1 h
